This experiment deals with T1, Transcriptional enhancer factor TEF-3 [217-434] (Homo sapiens, UniProt Q15561).
T1 construct: 217-434
The experiment in a line: TEAD4 FRET Assay.

T1 sequence (Q15561 217-434): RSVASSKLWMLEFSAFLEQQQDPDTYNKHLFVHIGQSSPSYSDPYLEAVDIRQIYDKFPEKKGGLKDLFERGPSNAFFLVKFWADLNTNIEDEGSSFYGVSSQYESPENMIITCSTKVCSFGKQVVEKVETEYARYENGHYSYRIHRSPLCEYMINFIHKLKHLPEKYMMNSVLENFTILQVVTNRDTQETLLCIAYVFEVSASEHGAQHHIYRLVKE

With `C=CC(=O)N1C[C@H](C#N)[C@H](Nc2nnc(-c3ccc(C(F)(F)F)cc3)c3ccccc23)C1` (single isomer, unassigned) [US20240116926, Example 29], the concentration for half-maximal inhibition (IC50) (commonly the concentration at which inhibition is half-maximal) came to 0.13 µM.
